Among the data in ChEMBL document CHEMBL1909046, “DrugMatrix in vitro pharmacology data” are IC50 and Ki values, retold here.

Molecules are shown by their SMILES.

Sequence of Prostaglandin G/H synthase 1 (P23219 whole entry): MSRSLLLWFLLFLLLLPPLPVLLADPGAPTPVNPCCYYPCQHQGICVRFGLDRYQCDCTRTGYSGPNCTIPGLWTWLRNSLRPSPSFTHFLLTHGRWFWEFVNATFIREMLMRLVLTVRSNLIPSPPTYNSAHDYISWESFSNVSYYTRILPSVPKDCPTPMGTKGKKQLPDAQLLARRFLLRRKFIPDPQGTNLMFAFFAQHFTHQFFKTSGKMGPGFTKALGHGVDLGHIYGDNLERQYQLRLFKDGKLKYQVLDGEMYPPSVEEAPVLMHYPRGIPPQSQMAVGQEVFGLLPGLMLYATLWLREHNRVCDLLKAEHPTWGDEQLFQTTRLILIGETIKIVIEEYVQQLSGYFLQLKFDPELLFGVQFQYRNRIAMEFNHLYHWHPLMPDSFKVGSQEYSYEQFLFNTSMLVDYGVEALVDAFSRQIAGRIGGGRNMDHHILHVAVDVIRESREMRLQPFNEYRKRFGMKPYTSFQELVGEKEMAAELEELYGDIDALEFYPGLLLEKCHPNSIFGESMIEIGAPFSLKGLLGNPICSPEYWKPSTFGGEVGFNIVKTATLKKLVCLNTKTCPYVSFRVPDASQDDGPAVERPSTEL

Tested on in one experiment: not listed separately
Put plainly: DRUGMATRIX: Sodium/nucleoside co-transporter radioligand binding (ligand: nitrobenzylthioinosine). Particulars: Not Active = under 50% inhibition at 10 µM. Type of experiment: cell membranes, Cavia porcellus, Dunkin-Hartley, Cerebral cortex, Membrane.
Take `COS(C)(=O)=O` [METHANESULFONIC ACID METHYL ESTER]: the IC50 result is listed as “Not Active” and the Ki result was “Not Active”.

As to `CN1[C@@H]2CC[C@H]1C[C@@H](OC(=O)c1c[nH]c3ccccc13)C2` [TROPISETRON], the IC50 result was “Not Active” and the Ki result is “Not Active”.

With `COC(=O)c1ccc(O)cc1` [METHYLPARABEN], the IC50 result is given as “Not Active” and the Ki result is “Not Active”.

A further experiment has as its target T1, Alpha-1A adrenergic receptor (Rattus norvegicus, UniProt P43140).
T1 sequence (P43140 whole entry): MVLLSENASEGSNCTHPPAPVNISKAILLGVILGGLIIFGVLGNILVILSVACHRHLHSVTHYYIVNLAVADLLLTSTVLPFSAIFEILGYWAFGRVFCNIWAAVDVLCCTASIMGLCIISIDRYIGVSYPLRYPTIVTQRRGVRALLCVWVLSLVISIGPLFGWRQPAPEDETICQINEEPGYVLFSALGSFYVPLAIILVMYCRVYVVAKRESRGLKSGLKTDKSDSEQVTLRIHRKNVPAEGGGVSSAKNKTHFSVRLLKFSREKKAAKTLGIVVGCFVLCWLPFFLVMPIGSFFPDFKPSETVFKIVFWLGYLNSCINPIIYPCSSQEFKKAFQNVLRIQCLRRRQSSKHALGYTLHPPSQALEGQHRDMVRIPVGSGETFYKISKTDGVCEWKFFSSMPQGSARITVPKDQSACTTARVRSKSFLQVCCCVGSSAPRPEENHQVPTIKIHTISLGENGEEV
The experiment in a line: DRUGMATRIX: Alpha-1A adrenergic receptor radioligand binding (ligand: prazosin). Type of experiment: cell membranes, Wistar, Submaxillary gland, Membrane. Particulars: Not Active = under 50% inhibition at 10 µM.
As for `COS(C)(=O)=O` [METHANESULFONIC ACID METHYL ESTER], the IC50 result is on record as “Not Active”.

As for `CN1[C@@H]2CC[C@H]1C[C@@H](OC(=O)c1c[nH]c3ccccc13)C2` [TROPISETRON], the IC50 entry was “Not Active”.

`COC(=O)c1ccc(O)cc1` [METHYLPARABEN]: the IC50 result was “Not Active”.

The next experiment addresses T2, Alpha-1D adrenergic receptor (Homo sapiens, UniProt P25100).
T2 sequence (P25100 whole entry): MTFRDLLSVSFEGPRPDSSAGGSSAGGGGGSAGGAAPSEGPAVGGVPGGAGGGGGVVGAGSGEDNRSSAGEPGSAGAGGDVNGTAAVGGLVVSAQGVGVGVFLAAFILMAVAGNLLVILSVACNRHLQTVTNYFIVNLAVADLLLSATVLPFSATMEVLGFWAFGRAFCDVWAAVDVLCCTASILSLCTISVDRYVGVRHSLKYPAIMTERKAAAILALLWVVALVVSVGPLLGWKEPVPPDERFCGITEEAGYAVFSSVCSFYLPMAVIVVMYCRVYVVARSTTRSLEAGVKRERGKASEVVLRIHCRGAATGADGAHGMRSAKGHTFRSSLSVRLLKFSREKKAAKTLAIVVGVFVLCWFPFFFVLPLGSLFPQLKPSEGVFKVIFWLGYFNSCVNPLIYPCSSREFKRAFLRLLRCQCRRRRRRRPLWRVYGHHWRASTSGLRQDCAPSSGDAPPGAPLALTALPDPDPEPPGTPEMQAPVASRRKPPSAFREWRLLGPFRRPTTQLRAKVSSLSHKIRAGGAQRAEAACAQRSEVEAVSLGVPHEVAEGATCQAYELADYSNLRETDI
Test: not given
In kind it is cell membranes, HEK293, Membrane. Particulars: hek293.
For `COS(C)(=O)=O` [METHANESULFONIC ACID METHYL ESTER], the IC50 result is given as “Not Active”.

Consider `CN1[C@@H]2CC[C@H]1C[C@@H](OC(=O)c1c[nH]c3ccccc13)C2` [TROPISETRON], for which the IC50 entry is listed as “Not Active”.

For `COC(=O)c1ccc(O)cc1` [METHYLPARABEN], the IC50 result is “Not Active”.

For the next experiment, the target named is Beta-3 adrenergic receptor (Homo sapiens, UniProt P13945). The experiment in a line: DRUGMATRIX: Adrenergic beta3 radioligand binding (ligand: [125I] Cyanopindolol). Type of experiment: cell membranes, HEK293, Membrane. As to conditions: hek293; Not Active = under 50% inhibition at 10 µM.
Sequence of Beta-3 adrenergic receptor (P13945 whole entry): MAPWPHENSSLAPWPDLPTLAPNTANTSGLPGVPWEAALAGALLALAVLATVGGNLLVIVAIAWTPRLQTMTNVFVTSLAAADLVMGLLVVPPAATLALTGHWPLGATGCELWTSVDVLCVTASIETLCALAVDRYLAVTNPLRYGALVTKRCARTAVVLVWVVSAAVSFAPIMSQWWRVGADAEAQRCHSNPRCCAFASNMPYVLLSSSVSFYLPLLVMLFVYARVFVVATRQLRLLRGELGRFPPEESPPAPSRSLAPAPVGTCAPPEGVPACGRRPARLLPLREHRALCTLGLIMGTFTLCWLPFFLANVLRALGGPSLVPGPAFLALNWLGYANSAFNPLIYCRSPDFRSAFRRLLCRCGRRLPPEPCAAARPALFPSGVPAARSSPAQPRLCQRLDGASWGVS
As for `COS(C)(=O)=O` [METHANESULFONIC ACID METHYL ESTER], the IC50 entry was “Not Active”.

On to `CN1[C@@H]2CC[C@H]1C[C@@H](OC(=O)c1c[nH]c3ccccc13)C2` [TROPISETRON], for which the IC50 entry is listed as “Not Active”.

With `COC(=O)c1ccc(O)cc1` [METHYLPARABEN], the IC50 entry is given as “Not Active”.

The next experiment addresses T3, Calcitonin receptor (Homo sapiens, UniProt P30988).
T3 sequence (P30988 whole entry): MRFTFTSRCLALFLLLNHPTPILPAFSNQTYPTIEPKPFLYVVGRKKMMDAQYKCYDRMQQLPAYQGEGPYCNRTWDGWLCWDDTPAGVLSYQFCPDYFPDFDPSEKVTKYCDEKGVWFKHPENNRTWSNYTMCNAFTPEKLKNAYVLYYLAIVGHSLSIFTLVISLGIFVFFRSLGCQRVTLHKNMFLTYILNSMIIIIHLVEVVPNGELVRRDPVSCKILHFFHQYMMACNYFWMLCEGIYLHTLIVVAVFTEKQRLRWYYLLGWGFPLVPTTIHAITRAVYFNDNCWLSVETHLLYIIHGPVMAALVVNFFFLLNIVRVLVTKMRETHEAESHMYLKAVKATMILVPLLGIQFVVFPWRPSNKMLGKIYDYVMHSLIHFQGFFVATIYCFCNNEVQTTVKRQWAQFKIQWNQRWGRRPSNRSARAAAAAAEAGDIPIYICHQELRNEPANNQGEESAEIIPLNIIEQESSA
Test: not given
Type of experiment: cell membranes, Membrane. Particulars: t47d.
In the case of `COS(C)(=O)=O` [METHANESULFONIC ACID METHYL ESTER], the IC50 entry is “Not Active”.

With `CN1[C@@H]2CC[C@H]1C[C@@H](OC(=O)c1c[nH]c3ccccc13)C2` [TROPISETRON], the IC50 entry is “Not Active”.

On to `COC(=O)c1ccc(O)cc1` [METHYLPARABEN], for which the IC50 entry is recorded as “Not Active”.

The next experiment addresses Prostaglandin G/H synthase 1 (Homo sapiens, UniProt P23219). The experiment in a line: biochemical. Type of experiment: tissue-based, Platelet. Particulars: platelet.
Take `COS(C)(=O)=O` [METHANESULFONIC ACID METHYL ESTER]: the IC50 result is on record as “Not Active”.

For `CN1[C@@H]2CC[C@H]1C[C@@H](OC(=O)c1c[nH]c3ccccc13)C2` [TROPISETRON], the IC50 entry is recorded as “Not Active”.

For `COC(=O)c1ccc(O)cc1` [METHYLPARABEN], the IC50 result is on record as “Not Active”.

The next experiment concerns the target T4, D(4) dopamine receptor (Homo sapiens, UniProt P21917).
T4 sequence (P21917 whole entry): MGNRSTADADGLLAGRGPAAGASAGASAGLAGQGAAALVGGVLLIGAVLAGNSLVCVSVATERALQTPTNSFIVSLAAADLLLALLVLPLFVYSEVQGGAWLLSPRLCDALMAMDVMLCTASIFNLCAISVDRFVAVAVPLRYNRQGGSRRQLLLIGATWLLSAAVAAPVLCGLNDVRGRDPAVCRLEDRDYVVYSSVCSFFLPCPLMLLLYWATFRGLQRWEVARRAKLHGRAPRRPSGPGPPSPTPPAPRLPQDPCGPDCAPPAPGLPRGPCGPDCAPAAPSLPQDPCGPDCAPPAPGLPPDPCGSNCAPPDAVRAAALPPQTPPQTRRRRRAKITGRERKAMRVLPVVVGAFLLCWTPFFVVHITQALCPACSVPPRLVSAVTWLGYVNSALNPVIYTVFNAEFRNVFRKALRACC
Put plainly: DRUGMATRIX: Dopamine D4.2 radioligand binding (ligand: [3H] Spiperone). Type of experiment: cell membranes, CHO-K1, Membrane. Particulars: cho-k1; Not Active = under 50% inhibition at 10 µM.
With `COS(C)(=O)=O` [METHANESULFONIC ACID METHYL ESTER], the IC50 entry was “Not Active”.

As for `CN1[C@@H]2CC[C@H]1C[C@@H](OC(=O)c1c[nH]c3ccccc13)C2` [TROPISETRON], the IC50 result is “Not Active”.

Consider `COC(=O)c1ccc(O)cc1` [METHYLPARABEN], for which the IC50 result is on record as “Not Active”.

For a further experiment, the target named is Glycine receptor (Rattus norvegicus, UniProt P22771+P24524+P07727+P20781). Also: in other assays of this panel Not Active means under 50% inhibition at 10 µM.
Test: not given
Type of experiment: cell membranes, Wistar, Spinal cord, Membrane.
Conditions: not given
As for `COS(C)(=O)=O` [METHANESULFONIC ACID METHYL ESTER], the IC50 result is reported as “Not Active”.

Turning to `CN1[C@@H]2CC[C@H]1C[C@@H](OC(=O)c1c[nH]c3ccccc13)C2` [TROPISETRON], the IC50 result is recorded as “Not Active”.

`COC(=O)c1ccc(O)cc1` [METHYLPARABEN]: the IC50 entry is “Not Active”.

Tested on in the next experiment: not listed separately
Put plainly: DRUGMATRIX: Phosphodiesterase PDE4 enzyme inhibition (substrate: [3H]cAMP + cAMP). As to conditions: u-937; Not Active = under 50% inhibition at 10 µM.
With `COS(C)(=O)=O` [METHANESULFONIC ACID METHYL ESTER], the IC50 entry is on record as “Not Active” and the Ki result is “Not Active”.

In the case of `CN1[C@@H]2CC[C@H]1C[C@@H](OC(=O)c1c[nH]c3ccccc13)C2` [TROPISETRON], the IC50 entry is recorded as “Not Active” and the Ki entry was “Not Active”.

In the case of `COC(=O)c1ccc(O)cc1` [METHYLPARABEN], the IC50 result is “Not Active” and the Ki result is given as “Not Active”.

A further experiment deals with T5, Cathepsin G (Homo sapiens, UniProt P08311).
T5 sequence (P08311 whole entry): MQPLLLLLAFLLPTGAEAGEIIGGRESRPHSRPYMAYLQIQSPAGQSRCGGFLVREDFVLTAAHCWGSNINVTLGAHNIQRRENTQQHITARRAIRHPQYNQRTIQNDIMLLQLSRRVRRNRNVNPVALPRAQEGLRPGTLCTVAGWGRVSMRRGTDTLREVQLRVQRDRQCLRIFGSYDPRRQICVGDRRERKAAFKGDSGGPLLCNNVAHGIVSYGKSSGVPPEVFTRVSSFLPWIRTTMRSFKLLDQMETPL
Test: not given
Type of experiment: tissue-based. Particulars: neutrophil.
With `COS(C)(=O)=O` [METHANESULFONIC ACID METHYL ESTER], the IC50 result is on record as “Not Active”.

In the case of `CN1[C@@H]2CC[C@H]1C[C@@H](OC(=O)c1c[nH]c3ccccc13)C2` [TROPISETRON], the IC50 result is “Not Active”.

Consider `COC(=O)c1ccc(O)cc1` [METHYLPARABEN], for which the IC50 result is on record as “Not Active”.

The target of the next experiment is Protein kinase C alpha type (Homo sapiens, UniProt P17252).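 Also: inhibition of PKCalpha kinase activity measured in an enzyme assay with histone as the phosphorylation substrate; in other assays of this panel Not Active means under 50% inhibition at 10 µM.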
Test: not given
Type of experiment: cell-based. As to conditions: sf9.
For `COS(C)(=O)=O` [METHANESULFONIC ACID METHYL ESTER], the IC50 result is on record as “Not Active”.

With `CN1[C@@H]2CC[C@H]1C[C@@H](OC(=O)c1c[nH]c3ccccc13)C2` [TROPISETRON], the IC50 entry is reported as “Not Active”.

`COC(=O)c1ccc(O)cc1` [METHYLPARABEN]: the IC50 entry is listed as “Not Active”.

For another experiment, the target named is Epidermal growth factor receptor (Homo sapiens, UniProt P00533). The experiment in a line: DRUGMATRIX: Protein Tyrosine Kinase, EGF Receptor enzyme inhibition (substrate: Poly(Glu:Tyr)). In kind it is cell-based, Insect cells. As to conditions: insect cells; Not Active = under 50% inhibition at 10 µM.
Sequence of Epidermal growth factor receptor (P00533 whole entry): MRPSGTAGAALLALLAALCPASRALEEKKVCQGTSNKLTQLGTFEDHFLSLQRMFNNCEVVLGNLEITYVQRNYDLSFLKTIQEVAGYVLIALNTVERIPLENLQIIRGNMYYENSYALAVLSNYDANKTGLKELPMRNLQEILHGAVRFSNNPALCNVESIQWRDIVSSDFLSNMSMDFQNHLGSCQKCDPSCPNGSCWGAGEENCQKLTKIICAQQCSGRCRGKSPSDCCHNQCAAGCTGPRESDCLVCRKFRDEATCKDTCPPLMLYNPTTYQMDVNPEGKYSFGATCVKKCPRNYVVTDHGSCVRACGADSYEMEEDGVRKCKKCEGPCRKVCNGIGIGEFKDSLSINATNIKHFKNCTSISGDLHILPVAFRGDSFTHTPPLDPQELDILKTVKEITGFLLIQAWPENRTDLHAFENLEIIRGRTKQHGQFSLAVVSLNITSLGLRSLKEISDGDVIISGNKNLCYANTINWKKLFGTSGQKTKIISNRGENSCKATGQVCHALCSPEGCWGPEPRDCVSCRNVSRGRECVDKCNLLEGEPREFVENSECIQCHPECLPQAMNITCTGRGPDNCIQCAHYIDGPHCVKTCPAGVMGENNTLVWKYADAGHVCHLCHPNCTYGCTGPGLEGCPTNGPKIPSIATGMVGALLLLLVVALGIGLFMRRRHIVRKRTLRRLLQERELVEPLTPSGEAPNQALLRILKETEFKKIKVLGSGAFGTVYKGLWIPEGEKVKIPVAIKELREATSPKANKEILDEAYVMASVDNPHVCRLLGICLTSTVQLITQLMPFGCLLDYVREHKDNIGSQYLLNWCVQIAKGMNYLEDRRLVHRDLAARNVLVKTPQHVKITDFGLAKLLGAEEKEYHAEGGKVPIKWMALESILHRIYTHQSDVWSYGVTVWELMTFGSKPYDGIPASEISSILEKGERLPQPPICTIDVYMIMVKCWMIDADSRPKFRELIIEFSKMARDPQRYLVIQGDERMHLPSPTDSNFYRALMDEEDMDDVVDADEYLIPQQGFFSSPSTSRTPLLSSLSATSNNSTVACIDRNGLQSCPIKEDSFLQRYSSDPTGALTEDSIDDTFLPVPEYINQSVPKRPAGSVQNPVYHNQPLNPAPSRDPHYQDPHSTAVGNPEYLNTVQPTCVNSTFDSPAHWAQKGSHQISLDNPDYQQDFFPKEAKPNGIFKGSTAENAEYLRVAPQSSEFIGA
For `COS(C)(=O)=O` [METHANESULFONIC ACID METHYL ESTER], the IC50 entry is “Not Active”.

For `CN1[C@@H]2CC[C@H]1C[C@@H](OC(=O)c1c[nH]c3ccccc13)C2` [TROPISETRON], the IC50 entry is on record as “Not Active”.

`COC(=O)c1ccc(O)cc1` [METHYLPARABEN]: the IC50 entry was “Not Active”.
